Reference: patent publication US11998577B2, “Methods for increasing growth of beneficial bacteria in the gastrointestinal tract” (ABBOTT LABORATORIES, priority 2017, dated 2024)

Columns and labels:
[1] = tested on: genus Bifidobacterium; test: Fecal fermentation, quantification of genus Bifidobacterium by real-time PCR; type: cell-based; details: faecal slurry of formula-fed baby, 37° C., pH 5.5, anaerobic; 2′-FL at both daily (DD) and per intake (DI) doses; p<0.05 vs blend (DD) and blend (DI)
Method: (§1) Example 2: A series of experiments were carried out to determine the effects of providing 2′-FL, lutein, and RRR-alpha-tocopherol on bacterial growth. Fecal fermentations were carried out by using 3 ml fermentations in 10 ml fermentor (24 multi-well plate; μ-24 Bioreactor, Applikon Biotechnology). Fresh faecal sample came from a formula (without prebiotic or probiotic)-fed baby. Stools were vacuum stored in refrigerated conditions until the fermentation. Fresh feces were weighed and dissolved in Mc Bain and MacFarlane medium (1:5) to hydrate them. Three milliliters of the homogenized mixture (faecal slurry) were inoculated in each fermenter. In each case, prebiotic (2′-FL), RRR-alpha-tocopherol (vitamin E) and lutein were added at different dosage (Table 4). […] Anaerobiosis, temperature (37° C.) and pH levels (pH 5.5) were maintained during the assay and monitored throughout the study. […] For quantification, previous extracted DNA was used. Real-time PCR was used to quantify genera Bifidobacterium and Lactobacillus, and B. longum and L. fermentum species. In the case of genus Bifidobacterium and B. longum, quantification was performed with primers described by Matsuki et al.1. Lactobacillus group was quantified with primers described by Byun et al.2. Lactobacillus fermentum was quantified with the aid of primers designed by Matsuda et al.3 Nucleotide sequences of primers are listed in Table 5. […]

[2] = tested on: B. longum; test: Fecal fermentation, quantification of B. longum species by real-time PCR; type: cell-based, Bifidobacterium longum; details: faecal slurry fermentation; 2′-FL at both daily (DD) and per intake (DI) doses; p<0.05 vs product (DD) and blend (DI)
Method: as §1

[3] = tested on: L. fermentum; test: Fecal fermentation, quantification of L. fermentum species by real-time PCR; type: cell-based, Lactobacillus fermentum; details: faecal slurry fermentation; detection limit 1.00·103CFU/g slurry
Method: as §1

C[C@@H]1O[C@@H](O[C@H]2[C@H](O[C@H]3[C@H](O)[C@@H](O)C(O)O[C@@H]3CO)O[C@H](CO)[C@H](O)[C@@H]2O)[C@@H](O)[C@H](O)[C@@H]1O (stereo partly drawn) [2′-FL, 2′-fucosyllactose]
bifidobacteria numbers (real-time PCR, FIG. 1) [1]: significant higher bifidobacteria numbers
B. longum numbers (real-time PCR, FIG. 2) [2]: significant higher B. longum numbers
L. fermentum detection (real-time PCR, FIG. 4) [3]: reached detectable values
